Assay results taken from PMC6930605, “Matrix Metalloproteinase Triple-Helical Peptide Inhibitors: Potential Cross-Reactivity with Caspase-11” (Molecules, 2019).

Key:
caspase-11 = assay: Caspase enzyme assay (residual caspase-11 activity); format: biochemical, mouse
MT1-MMP = target: MT1-MMP; set-up: method as in 2 sources, ref [19] = [19]; PMID 28394608; doi:10.1021/acs.jmedchem.7b00018; 19. Bhowmick M. Tokmina-Roszyk D. Onwuha-Ekpete L. Harmon K. Robichaud T. Fuerst R. Stawikowska R. Steffensen B. Roush W.R. Wong H. Second Generation Triple-Helical Peptide Transition State Analog Mat ||| ref [15],[19] = [15]; PMID 17672455; doi:10.1021/ja0715849; 15. Lauer-Fields J.L. Brew K. Whitehead J.K. Li S. Hammer R.P. Fields G.B. Triple-helical transition-state analogs: A new class of selective matrix metalloproteinase inhibitors J. Am. Chem. Soc. 2007 || [19]; PMID 28394608; doi:10.1021/acs.jmedchem.7b00018; 19. Bhowmick M. Tokmina-Roszyk D. Onwuha-Ekpete L. Harmon K. Robichaud T. Fuerst R. Stawikowska R. Steffensen B. Roush W.R. Wong H. Second Generation Triple-Helical Peptide Transition State Analog Mat; conditions: no or weak inhibition of MT1-MMP; ref [15],[19]; cited from earlier work
MMP-8 = target: T1, MMP-8 (Homo sapiens, UniProt P22894); set-up: method as in 2 sources, ref [19] = [19]; PMID 28394608; doi:10.1021/acs.jmedchem.7b00018; 19. Bhowmick M. Tokmina-Roszyk D. Onwuha-Ekpete L. Harmon K. Robichaud T. Fuerst R. Stawikowska R. Steffensen B. Roush W.R. Wong H. Second Generation Triple-Helical Peptide Transition State Analog Mat ||| ref [15],[19] = [15]; PMID 17672455; doi:10.1021/ja0715849; 15. Lauer-Fields J.L. Brew K. Whitehead J.K. Li S. Hammer R.P. Fields G.B. Triple-helical transition-state analogs: A new class of selective matrix metalloproteinase inhibitors J. Am. Chem. Soc. 2007 || [19]; PMID 28394608; doi:10.1021/acs.jmedchem.7b00018; 19. Bhowmick M. Tokmina-Roszyk D. Onwuha-Ekpete L. Harmon K. Robichaud T. Fuerst R. Stawikowska R. Steffensen B. Roush W.R. Wong H. Second Generation Triple-Helical Peptide Transition State Analog Mat; conditions: no or weak inhibition of MMP-8; ref [15],[19]; cited from earlier work
T1 construct: purchased R&D Systems
T1 sequence (P22894 101-467): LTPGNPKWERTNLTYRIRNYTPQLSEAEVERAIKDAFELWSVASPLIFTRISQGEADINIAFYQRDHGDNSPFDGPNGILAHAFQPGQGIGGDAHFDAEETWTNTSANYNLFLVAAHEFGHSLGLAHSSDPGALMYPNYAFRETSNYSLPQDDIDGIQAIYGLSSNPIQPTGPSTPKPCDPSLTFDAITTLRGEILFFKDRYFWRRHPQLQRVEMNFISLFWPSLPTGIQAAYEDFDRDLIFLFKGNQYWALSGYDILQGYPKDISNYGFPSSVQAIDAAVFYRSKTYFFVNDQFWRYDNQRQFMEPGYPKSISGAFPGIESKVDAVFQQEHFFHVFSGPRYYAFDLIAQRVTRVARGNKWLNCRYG

MMP-1 = target: MMP-1; set-up: method as in 2 sources, ref [19] = [19]; PMID 28394608; doi:10.1021/acs.jmedchem.7b00018; 19. Bhowmick M. Tokmina-Roszyk D. Onwuha-Ekpete L. Harmon K. Robichaud T. Fuerst R. Stawikowska R. Steffensen B. Roush W.R. Wong H. Second Generation Triple-Helical Peptide Transition State Analog Mat ||| ref [15],[19] = [15]; PMID 17672455; doi:10.1021/ja0715849; 15. Lauer-Fields J.L. Brew K. Whitehead J.K. Li S. Hammer R.P. Fields G.B. Triple-helical transition-state analogs: A new class of selective matrix metalloproteinase inhibitors J. Am. Chem. Soc. 2007 || [19]; PMID 28394608; doi:10.1021/acs.jmedchem.7b00018; 19. Bhowmick M. Tokmina-Roszyk D. Onwuha-Ekpete L. Harmon K. Robichaud T. Fuerst R. Stawikowska R. Steffensen B. Roush W.R. Wong H. Second Generation Triple-Helical Peptide Transition State Analog Mat; conditions: no or weak inhibition of MMP-1; ref [15],[19]; cited from earlier work
MMP-3 = target: MMP-3; set-up: method as in 2 sources, ref [19] = [19]; PMID 28394608; doi:10.1021/acs.jmedchem.7b00018; 19. Bhowmick M. Tokmina-Roszyk D. Onwuha-Ekpete L. Harmon K. Robichaud T. Fuerst R. Stawikowska R. Steffensen B. Roush W.R. Wong H. Second Generation Triple-Helical Peptide Transition State Analog Mat ||| ref [15],[19] = [15]; PMID 17672455; doi:10.1021/ja0715849; 15. Lauer-Fields J.L. Brew K. Whitehead J.K. Li S. Hammer R.P. Fields G.B. Triple-helical transition-state analogs: A new class of selective matrix metalloproteinase inhibitors J. Am. Chem. Soc. 2007 || [19]; PMID 28394608; doi:10.1021/acs.jmedchem.7b00018; 19. Bhowmick M. Tokmina-Roszyk D. Onwuha-Ekpete L. Harmon K. Robichaud T. Fuerst R. Stawikowska R. Steffensen B. Roush W.R. Wong H. Second Generation Triple-Helical Peptide Transition State Analog Mat; conditions: no or weak inhibition of MMP-3; ref [15],[19]; cited from earlier work
MMP-2 = target: T2, MMP-2 (Homo sapiens, UniProt P08253); conditions: 37 °C; ref [15],[19]; cited from earlier work
T2 construct: Recombinant MMP-2 and MMP-9 catalytic domain were purchased from Sigma-Aldrich; purchased Sigma-Aldrich
T2 sequence (P08253 110-660): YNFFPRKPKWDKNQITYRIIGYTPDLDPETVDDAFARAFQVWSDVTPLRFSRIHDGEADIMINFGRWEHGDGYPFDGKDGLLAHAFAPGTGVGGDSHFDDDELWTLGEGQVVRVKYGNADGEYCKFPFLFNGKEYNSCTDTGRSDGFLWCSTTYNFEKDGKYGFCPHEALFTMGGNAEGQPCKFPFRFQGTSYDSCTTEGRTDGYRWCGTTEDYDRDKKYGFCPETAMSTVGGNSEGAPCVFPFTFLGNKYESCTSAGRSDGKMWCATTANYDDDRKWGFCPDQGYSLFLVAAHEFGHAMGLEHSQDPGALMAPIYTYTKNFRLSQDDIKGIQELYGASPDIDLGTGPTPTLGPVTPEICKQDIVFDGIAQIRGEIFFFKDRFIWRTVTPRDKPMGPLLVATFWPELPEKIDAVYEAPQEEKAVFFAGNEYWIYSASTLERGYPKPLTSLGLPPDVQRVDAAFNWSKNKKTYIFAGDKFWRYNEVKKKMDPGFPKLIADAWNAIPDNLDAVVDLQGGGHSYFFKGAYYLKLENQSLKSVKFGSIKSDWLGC

MMP-9 = target: T3, MMP-9 (Homo sapiens, UniProt P14780); conditions: 37 °C; ref [15],[19]; cited from earlier work
T3 construct: Recombinant MMP-2 and MMP-9 catalytic domain were purchased from Sigma-Aldrich; purchased Sigma-Aldrich
T3 sequence (P14780 107-444 limits assumed, species assumed): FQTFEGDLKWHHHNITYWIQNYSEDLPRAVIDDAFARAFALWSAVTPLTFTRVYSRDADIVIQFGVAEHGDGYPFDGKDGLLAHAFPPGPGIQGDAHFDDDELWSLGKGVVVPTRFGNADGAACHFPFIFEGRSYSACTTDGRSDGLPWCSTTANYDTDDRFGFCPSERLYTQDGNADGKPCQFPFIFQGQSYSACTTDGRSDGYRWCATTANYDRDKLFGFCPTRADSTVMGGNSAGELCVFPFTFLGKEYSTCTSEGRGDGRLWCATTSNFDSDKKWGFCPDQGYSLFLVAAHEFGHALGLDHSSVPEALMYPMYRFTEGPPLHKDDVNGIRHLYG

MMP-13 = MMP-13 (Homo sapiens, UniProt P45452); conditions: no or weak inhibition of MMP-13; ref [15],[19]; cited from earlier work
[1] = ref [19]; cited from earlier work

With “(Gly-Pro-Hyp)4-Gly-mep-Flp-Gly-Pro-Pro-GlyΨ{PO2H-CH2}Val-Val-Gly-Glu-Gln-Gly-Glu-Gln-Gly-Pro-Pro-Gly-mep-Flp-(Gly-Pro-Hyp)4-NH2” the “inhibition of caspase-11 activity at early time points” value (caspase-11; 5 μM inhibitor, 2 h inhibitor pre-incubation (Figure 2), stated to be similar to no pre-incubation) was “no inhibition to occur at early time points”, the “change in extent of caspase-11 inhibition over time” value (caspase-11; 5 μM inhibitor, 2 h pre-incubation, 1 h monitoring, data not shown) was “did not increase after 1 h” and the “inhibition of caspase-11 activity at early time points” value (caspase-11; no inhibitor pre-incubation time, data not shown) was “no inhibition to occur at early time points”. For the same substance, the Ki (MT1-MMP) was 10 to 50 µM, the Ki (MMP-8) was 10 to 50 µM and the Ki (MMP-1) was 10 to 50 µM. The Ki (MMP-3) was 10 to 50 µM, the Ki (MMP-2) was 0.00224 µM and the Ki (MMP-9) was 0.00098 µM. For the same substance, the Ki (MMP-13) was 10 to 50 µM and the “efficacy in animal model of multiple sclerosis” value [1] was “efficacious in an animal model of multiple sclerosis”.

With “Ac-LEVD-aldehyde (SMILES CC(=O)N[C@@H](CC(C)C)C(=O)N[C@@H](CCC(=O)O)C(=O)N[C@H](C(=O)N[C@H](C=O)CC(=O)O)C(C)C) [reference compound]” the “inhibition of caspase-11 activity” value (caspase-11; 5 μM inhibitor incubated with enzyme 2 h prior to substrate, 3 U/μL (1.08 μM) caspase-11, 250 μM acetyl-Trp-Glu-His-Asp-pNA, pH 6.5, 37 °C, absorbance 405 nm, result in words (up to 15 min)) was “completely inhibit enzymatic activity”.
